Data from patent publication US10294202B2, “Pyrrolidinones as herbicides” (FMC Corporation, priority 2013, dated 2019).

Legend:
wheat = assay: Test A pre-/postemergence herbicide test; type: in vivo, Triticum aestivum
Method in brief: (§1)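 Seeds sown in loam soil/sand blend received a preemergence directed soil spray of test chemical in non-phytotoxic solvent with surfactant; postemergence plants (2–10 cm, one- to two-leaf stage) were sprayed with the same formulation. After about 10 days in greenhouse, injury was rated visually versus untreated controls, 0 (no effect) to 100 (complete control).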

foxtail, giant = assay: Test C pre-/postemergence herbicide test; type: in vivo, Setaria faberii; settings: Preemergence
Method in brief: (§2)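 Visual rating, 0 (no effect) to 100 (complete control), versus untreated controls after 13 to 15 days in the greenhouse. Pre: seeds in loam/sand, sprayed at planting. Post: 1- to 4-leaf plants (2 to 18 cm) in peat-based mix. Compounds in non-phytotoxic solvent plus surfactant.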

giant foxtail = assay: Test A pre-/postemergence herbicide test; type: in vivo, Setaria faberii
Method in brief: as §1

galium = assay: Test C pre-/postemergence herbicide test; type: in vivo, Galium aparine; settings: Preemergence
Method in brief: as §2

pigweed = assay: Test C pre-/postemergence herbicide test; type: in vivo, Amaranthus retroflexus; settings: Preemergence
Method in brief: as §2

johnsongrass = assay: Test C pre-/postemergence herbicide test; type: in vivo, Sorghum halepense; settings: Preemergence
Method in brief: as §2

morningglory = assay: Test C pre-/postemergence herbicide test; type: in vivo, Ipomoea coccinea; settings: Preemergence
Method in brief: as §2

wheat (winter wheat) = assay: Test C pre-/postemergence herbicide test; type: in vivo, Triticum aestivum; settings: Preemergence
Method in brief: as §2

lambsquarters = assay: Test C pre-/postemergence herbicide test; type: in vivo, Chenopodium album; settings: Preemergence
Method in brief: as §2

[1] = Postemergence, 125 g ai/ha, 0 to 100 scale, 0 no effect, 100 complete control
[2] = Postemergence, 500 g ai/ha, 0 to 100 scale (0 no effect, 100 complete control)
[3] = Preemergence, 125 g ai/ha, visual rating on 0 to 100 scale (0 no effect, 100 complete control)
[4] = preemergence, 500 g ai/ha, 0 to 100 scale
[5] = 31 g ai/ha, scale 0 to 100 (0 no effect, 100 complete control)
[6] = 125 g ai/ha, scale 0 to 100 (0 no effect, 100 complete control)
[7] = 250 g ai/ha, scale 0 to 100 (0 no effect, 100 complete control)

O=C1NCC(c2ccc3c(c2)OC(F)(F)O3)C1C(=O)Nc1cccc(F)c1F (centres unmarked) [Compound 62]
Plant response rating, Wheat (wheat; [1]): 20
Plant response rating, Wheat (wheat; [2]): 60
Wheat plant response rating (wheat; [3]): 0
Plant response rating, Wheat (wheat; [4]): 0
Foxtail, Giant plant response rating (foxtail, giant; [5]): 65
Plant response rating, Foxtail, Giant (foxtail, giant; 62 g ai/ha, scale 0 to 100): 80
Plant response rating, Foxtail, Giant (foxtail, giant; [6]): 85
Plant response rating, Foxtail, Giant (foxtail, giant; [7]): 85
Plant response rating, Foxtail, Giant (giant foxtail; [1]): 80
Plant response rating, Foxtail, Giant (giant foxtail; [2]): 80
Foxtail, Giant plant response rating (giant foxtail; [3]): 80
Plant response rating, Foxtail, Giant (giant foxtail; [4]): 90
Galium plant response rating (galium; [5]): 0
Plant response rating, Galium (galium; 62 g ai/ha, scale 0 to 100): 0
Plant response rating, Galium (galium; [6]): 85
Plant response rating, Galium (galium; [7]): 90
Plant response rating, Pigweed (pigweed; 62 g ai/ha, scale 0 to 100): 40
Plant response rating, Pigweed (pigweed; [6]): 70
Plant response rating, Johnsongrass (johnsongrass; 62 g ai/ha, scale 0 to 100): 10
Plant response rating, Johnsongrass (johnsongrass; [6]): 30
Plant response rating, Morningglory (morningglory; 62 g ai/ha, scale 0 to 100): 10
Plant response rating, Morningglory (morningglory; [6]): 15
Plant response rating, Wheat (wheat (winter wheat); 62 g ai/ha, scale 0 to 100): 0
Plant response rating, Wheat (wheat (winter wheat); [6]): 0
Plant response rating, Lambsquarters (lambsquarters; 62 g ai/ha, scale 0 to 100): 65
Plant response rating, Lambsquarters (lambsquarters; [6]): 70
